The subject of this assay is immobilized GST-tagged bait protein domains. Nature of the assay: ProP-PD phage selections (HD2 P8, sublibraries, HD2 P3, HD1 P8) with NGS and confidence level. To be noted: for confidence / HD confidence / HD count proportions / HD mean counts: library HD; for confidence: ProP-PD peptides with disease-related mutations; for HD count proportions: mean normalised NGS counts; for HD mean counts: mean raw NGS counts, all selections; for p3_HD2 confidence / p3_HD2 mean counts / p3_HD2 count proportions: HD2 P3 library; for p3_HD2 confidence: confidence level (4 = High, 2-3 = Medium, 1 = Low); for p3_HD2 mean counts: mean NGS counts over replicate selections; for p3_HD2 count proportions: mean proportion of NGS counts. The class given is binding, human.

The mark [1] stands for this setting: library HD2, bait EPS15_EH__P42566_121_215, whether the validated benchmark motif instance was recovered in the ProP-PD selection (TRUE/FALSE).
The mark [2] stands for this setting: bait MAP1LC3A_ATG8 (Q9H492 2-121), HD2 library, benchmark motif instance recovered in the ProP-PD selection (TRUE/FALSE).
Where [3] appears, read: bait MAP1LC3B_ATG8 (Q9GZQ8 2-119), HD2 library, benchmark motif instance recovered in the ProP-PD selection (TRUE/FALSE).
Setting [4] is: library HD2, bait KLC1_TPR__Q07866_203_497, whether the validated benchmark motif instance was recovered in the ProP-PD selection (TRUE/FALSE).
[5] abbreviates: bait AP2B1_adaptin__P63010_700_937.
[6] abbreviates: HD2 library, bait SUMO1_SUMO__P63165_1_101, known motif instance of the benchmarking set found (TRUE) or not found (FALSE) among selected peptides.
The mark [7] stands for this setting: bait KPNA4_Arm (O00629 68-487), HD2 library, benchmark motif instance recovered in the ProP-PD selection (TRUE/FALSE).
Where [8] appears, read: library HD2, bait YES1_SH3__P07947_90_152, validated benchmark motif instance, in_library_check TRUE, TRUE/FALSE = instance recovered in ProP-PD selection.
Where [9] appears, read: bait ANKRA2_Ank__Q9H9E1_142_313, HD2 P8 selection, confidence level -4 to 4: 4 = High, 3 or 2 = Medium, 1 = Low, 0 = Filtered/Noise.
The mark [10] stands for this setting: bait MDM2_p53-binding-domain (Q00987 17-125), HD2 library, benchmark motif instance recovered in the ProP-PD selection (TRUE/FALSE).
The mark [11] stands for this setting: bait PEX14_Pex14__O75381_16_84, HD2 library, whether the validated benchmark motif instance was recovered in the ProP-PD selection (TRUE/FALSE).
Setting [12] is: bait PABP-B_PABP__P11940_544_623, HD2 library, whether the validated benchmark motif instance was recovered in the ProP-PD selection (TRUE/FALSE).
Setting [13] is: library HD2, bait Keap1_KELCH__Q14145_321_609, whether the validated benchmark motif instance was recovered in the ProP-PD selection (TRUE/FALSE).
The mark [14] stands for this setting: bait MDM2_p53-binding-domain (Q00987 17-125), HD2 library, confidence level (1-4) of best matching peptide.
[15] abbreviates: bait MDM2_p53-binding-domain (Q00987 17-125), HD2 library, specificity score of best matching peptide.

Consider DRHRIEEKRKRTYETFKSIMK [RELA 301-307], for which the motif_found entry (HD2 library, bait KPNA4_Arm__O00629_68_487, benchmark motif instance, in_library_check FALSE, in_library_coverage 0) was “FALSE”.
As to DSFYNNSYNPFKEVQTPQY, the motif_found entry under setting [1] is given as “FALSE”.
With DSSCDTDDFVMVPAQFPGD, the motif_found entry reads like this: under setting [2], “FALSE”; under setting [3], “FALSE”.
Regarding DSSKDSGFTIVSPLDI, the motif_found result under setting [3] was “TRUE”. For the setting “bait MAP1LC3B_ATG8 (Q9GZQ8 2-119), HD2 library, confidence level (1-4) of best matching peptide”, the best_confidence amounted to 4. Besides, under “bait MAP1LC3B_ATG8 (Q9GZQ8 2-119), HD2 library, specificity score of best matching peptide”, the best_specificity worked out at 1.
Regarding DTGKENEMDWDDSALTITVNPMET, the motif_found entry under setting [4] is given as “FALSE”.
For DTHAKWEQATKLILNY, the confidence (bait CALM1_EF-hand__P0DP23_2_149) was 3.
For DTLWRPMPKLAPLGLKVAN, the motif_found result (library HD2, bait ZMYND11_coiled-coil-MYND__Q15326_480_602, validated benchmark motif instance, in_library_check TRUE, TRUE/FALSE = instance recovered in ProP-PD selection) is recorded as “FALSE”.
Under setting [5], DVDYFGQQFDQISNRT returned an HD confidence of 2, an HD count proportions of 0.1904 and an HD mean counts of 883.25.
DWSNLVDAAKAYEVQR: the HD2-1mM_CaCl confidence (bait CALM1 EF-hand (P0DP23, 2-149), HD2 library selection with 1mM_CaCl, confidence level (4 = High, 2 or 3 = Medium, 1 = Low)) came out at 2. In addition, the HD2 confidence (bait CALM1 EF-hand (P0DP23, 2-149), HD2 library selection, confidence level (4 = High, 2 or 3 = Medium, 1 = Low)) turned out to be 3.
DYDQSRTKVLHMSLNPTSVARQR: the motif_found result (bait MAD2L1_HORMA (Q13257 1-205), HD2 library, benchmark motif instance recovered in the ProP-PD selection (TRUE/FALSE)) is on record as “FALSE”.
On to DYESDDDSYEVLDLTEY, for which the motif_found result under setting [3] is “FALSE”.
As to DYFDYESTNPFTAKFRASN, the motif_found entry under setting [1] is given as “FALSE”.
For EASKKKVDVIDLTIESSSDE, the motif_found result under setting [6] was “FALSE”.
As to EATNTTSEPSAPSQDLLDLS, the motif_found entry (HD2 library, bait TSG101_UEV__Q99816_1_145, known motif instance of the benchmarking set found (TRUE) or not found (FALSE) among selected peptides) is reported as “FALSE”.
In the case of ECISSAMPKKKKPSRLKGDNE, the motif_found result under setting [7] is “FALSE”.
On to EDSPLLEDWDIISPKDVIG [TBC1D25 135-139], for which the motif_found entry (HD2 library, bait MAP1LC3A_ATG8__Q9H492_2_121, benchmark motif instance, in_library_check FALSE, in_library_coverage 0) is on record as “FALSE” and the motif_found result (HD2 library, bait MAP1LC3B_ATG8__Q9GZQ8_2_119, benchmark motif instance, in_library_check FALSE, in_library_coverage 0) is reported as “FALSE”.
As for EEARKSPTPSAPVPLTEPAA, the motif_found entry (library HD2, bait TSG101_UEV__Q99816_1_145, validated benchmark motif instance, in_library_check TRUE, TRUE/FALSE = instance recovered in ProP-PD selection) is listed as “FALSE”.
With EEDQILKKPLPPEPAAAPVST, the motif_found result under setting [8] is on record as “FALSE”.
In the case of EEEEAVAGNPFIQPDSPAP, under setting [1], the motif_found result is reported as “FALSE”.
On the same count and under the same terms, the entry for EEEELDESNPFYEPKSTPP is “FALSE”.
On to EEEMEVPVLPKISLPI, for which, under setting [9], the HD2 confidence amounted to 2.
Under setting [5], EETFQLSRWTPFIKDI displayed an HD confidence of 3, an HD count proportions of 0.004596 and an HD mean counts of 9.0.
In the case of EFLSPEVFQHIWDFLEQPICSV, the motif_found result under setting [10] is “FALSE”.
As to EGALGGAFPPPPPPIEESF, the motif_found entry (library HD2, bait VASP_EVH1__P50552_1_114, validated benchmark motif instance, in_library_check TRUE, TRUE/FALSE = instance recovered in ProP-PD selection) was “FALSE”.
On to EGTATDRWYDEYHPEEDLQ, for which the motif_found entry under setting [11] is recorded as “FALSE”.
In the case of EKPVPTLPQFTMGPNV, the HD2 confidence under setting [9] came to 3.
In the case of ELDKEIKNSFNPEAQVFMPISDPASSV, the motif_found entry under setting [12] was “FALSE”.
With “ELDTNDDDIVFEDFARQRLKGMKDD,DDDIVFEDFARQRL [ARRB1]”, the motif_found result (bait AP2B1_adaptin__P63010_700_937, library HD2, benchmarking set of validated motif instances, TRUE = motif instance recovered in the ProP-PD selection) is “FALSE”.
As for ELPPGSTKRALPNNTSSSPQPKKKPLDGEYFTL, under setting [7], the motif_found result is listed as “FALSE”.
As to ELSMFQLPTLNFSPEQ, the confidence (bait ANKRA2_Ank__Q9H9E1_142_313) came out at 3.
Where the note is “bait NEDD4_WW_4_P46934_890_928”, EPCGQRDSPPDYHLLF showed a p3_HD2 confidence of 4, a p3_HD2 mean counts of 3356 and a p3_HD2 count proportions of 0.1373.
Take EPSKPAATRKRRWSAPESRK: the motif_found result under setting [7] is listed as “FALSE”.
As for EPSTTPNNWADFSSTW, under setting [5], the HD confidence was 3, the HD count proportions is reported as 0.0006275 and the HD mean counts is recorded as 1.5. Under “bait AP2B1_adaptin__P63010_700_937, library HD2 P8”, this substance gave an HD2 confidence of 4. Besides, the HD2_endomembrane confidence (bait AP2B1_adaptin__P63010_700_937, library HD2 P8 endomembrane) amounted to 4.
In the case of EQVASKGTGLNPNAKVWQEIAPGNTDA, the motif_found result under setting [12] is reported as “FALSE”.
For ERSGVIREVMIIEVSSSEEE, the motif_found result under setting [6] is “FALSE”.
As to ESAKAADDPENGERESHTPV, the motif_found result under setting [13] was “FALSE”.
ESEDYSQPSTSSSIIYSSQ: the motif_found result (library HD2, bait USP7_MATH-TRAF__Q93009_53_206, validated benchmark motif instance, in_library_check TRUE, TRUE/FALSE = instance recovered in ProP-PD selection) is reported as “FALSE”.
As for ESFGGGFADFSTLSKV, the best_specificity (bait AP2B1_adaptin__P63010_700_937, library HD2, best matching peptide) is recorded as 1. The same substance registered a best_confidence (bait AP2B1_adaptin__P63010_700_937, library HD2, confidence level of best matching peptide (4 = High, 2 or 3 = Medium, 1 = Low)) of 3.
With ESGSLEDDWDFLPPKKIKD, the motif_found entry is reported as “FALSE” under setting [2] and “FALSE” under setting [3].
ESSNLCMPDLPHLLAF registered an HD2 confidence (bait ANKRA2_Ank__Q9H9E1_142_313, library HD2 P8) of 4.
Take ETPGDGKPPALPPKQS: where the note is “bait CRK_SH3_1_P46108_124_198”, the p3_HD2 confidence turned out to be 3, the p3_HD2 mean counts stood at 437.0 and the p3_HD2 count proportions was determined as 0.01474.
Consider ETRICKIYDSPCLPEAEAMFA, for which the motif_found result under setting [8] was “FALSE”.
Regarding FADFSTLSKVNNEDPF, under setting [5], the HD confidence amounted to 3, the HD count proportions was determined as 0.0005532 and the HD mean counts is 1.25.
As for FASKPPTTNPFL-------, the motif_found result under setting [1] was “FALSE”.
As to FASQEKFFQELFDSELASQ, the motif_found result under setting [11] was “FALSE”.
Consider FATLPRKKNPFEESSETWD, for which the motif_found result under setting [1] is “FALSE”.
As to “FDIDMDAPETERAAVAIQSQFRKFQKKKAGSQS,DMDAPETERAAVAIQSQFRKFQKKKAGSQS---- [PCP4]”, for the setting “bait CALM1_EF-hand__P0DP23_2_149, library HD2, benchmarking set of validated motif instances, TRUE = motif instance recovered in the ProP-PD selection”, the motif_found result is listed as “FALSE”.
Consider FEAQWAALEGKATVEK, for which the motif_found entry under setting [10] is recorded as “TRUE”. For the same substance, the best_confidence under setting [14] amounted to 3. Under setting [15], this substance yielded a best_specificity of 1.
In the same order, the values of FEAQWAALENKSKQRT are “TRUE”, 3 and 0.97.
For FFAQLQLDEETGEFLPIQPA, the motif_found result under setting [13] is reported as “FALSE”.
Take FGPPPQVPSRPNRAPPGVPS [DNM1]: for the setting “bait CRK_SH3_1_P46108_124_198, library HD2, benchmarking set of validated motif instances, TRUE = motif instance recovered in the ProP-PD selection”, the motif_found result was “FALSE”.
On to FITGLTRTNPFSDRTAAPG, for which the motif_found entry under setting [1] is recorded as “FALSE”.
Consider FLGNGNELEWEDDTPVATAKNMPG, for which the motif_found entry under setting [4] was “FALSE”.
As to “FLKLKNAATLIQRHWRGHNCRKNYGLMRLGF [MYO7A 771-787]”, the motif_found result (HD2 library, bait CALM1_EF-hand__P0DP23_2_149, benchmark motif instance, in_library_check FALSE, in_library_coverage 0) was “FALSE”.

These data come from article PMC8769072, “Proteome‐scale mapping of binding sites in the unstructured regions of the human proteome” (Molecular Systems Biology, 2022).
